US9561239B2, “Compositions and methods for inhibiting norovirus infection” (Children's Hospital Medical Center, priority 2013, dated 2017)
Read-outs that look alike come from different tables or passages of the source.

How the values were obtained:
[1] = target: P dimers of VA387 (GII.4) binding to saliva HBGAs (Norovirus GII.4 (Human calicivirus NLV/VA98387/1998), UniProt Q913Z3); assay: Saliva-based NoV/HBGA blocking assay; parameters: species or system Norovirus VA387 (GII.4)
Experimental: (§1) Saliva-based NoV-HBGA binding assays were performed as described previously using P dimers of VA387 (GII.4) as NoV surrogates and saliva samples and/or synthetic oligosaccharides as HBGA sources. Briefly, synthetic oligosaccharides and/or boiled saliva samples with defined HBGAs phenotype were coated on 96-well microtiter plates, after blocking with nonfat milk, P dimer of VA387 were added. The bound P dimer was detected using a guinea pig antiserum against NoVs VLPs, followed by the addition of horseradish peroxidase (HRP)-conjugated goat anti-guinea pig IgG. The bound HRP conjugates were colorized by the TMB kit (Kirkegaard & Perry Laboratories), which was read an EIA spectrum reader (Tecan). The synthetic oligosaccharide-PAA conjugates (2 μg/ml, GlycoTech Corporation, Rockville, Md.) were captured to a microtiter plate through coated streptavidin (5 μg/ml).
(§2) Blocking effects of the hit compounds were measured by a pre-incubation of the P dimers with the compounds at given concentrations for 30 min before the P dimers were added to the coated saliva samples or HBGA oligosaccharides in a binding assay. The blocking activity of a compound was defined as its concentration yielding 50% inhibition (IC50) in the binding assay. IC50 calculation was performed using Probit regression analysis and correlation analysis between IC50 and Ki values was performed with nonparametric Spearman's r (two-tailed) by using SPSS statistical software version 13.0 (SPSS, Chicago, Ill.).

[2] = target: VA387 P dimer binding to the synthetic A and B oligosaccharides (Norovirus GII.4 (Human calicivirus NLV/VA98387/1998), UniProt Q913Z3); assay: Synthetic HBGA oligosaccharide-PAA conjugate blocking assay; parameters: species or system Norovirus VA387 (GII.4)
Sequence of VA387 P dimer binding to the synthetic A and B oligosaccharides (Q913Z3 214-539): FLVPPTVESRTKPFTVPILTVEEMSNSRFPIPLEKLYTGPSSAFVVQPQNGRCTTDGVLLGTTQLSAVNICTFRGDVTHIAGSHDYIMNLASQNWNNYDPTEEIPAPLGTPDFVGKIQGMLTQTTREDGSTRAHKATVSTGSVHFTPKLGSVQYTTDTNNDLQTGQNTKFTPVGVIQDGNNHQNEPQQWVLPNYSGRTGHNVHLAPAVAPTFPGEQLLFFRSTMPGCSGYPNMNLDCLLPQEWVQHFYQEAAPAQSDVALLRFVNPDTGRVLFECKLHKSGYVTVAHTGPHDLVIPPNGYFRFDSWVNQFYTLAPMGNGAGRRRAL
Experimental: as §1, §2

MTS cytotoxicity assay = format: cell-based, human; rhesus monkey; details: HeLa and LLC-MK2 cells, 3 days incubation; cell line per value not stated
Experimental: This assay was performed using CellTiter 96 aqueous nonradioactive cell proliferation kits (Promega, Madison, Wis.) as described elsewhere. Briefly, HeLa and LLC-MK2 cells were seeded at 5×10^4 cells/ml onto a 96-well plate overnight. After an incubation with each compound at various concentrations for 3 days (the compound was added one time at the beginning of the incubation), the culture medium was replaced with fresh one with 100 μl of MTS-phenazine methosulfate/well. After a further incubation at 37° C. for 2 h, the color products of MTS were measured with a plate reader at 490 nm. The cytotoxicities of individual compounds were indicated by the decrease in cellular reduction of MTS into the colored product. The 50% cytotoxic concentrations (CC50) were determined as the concentrations of the compounds that caused 50% inhibition of cell growth compared with that of control cells without a compound.

[3] = IC50 Saliva A, blocking assay, type A saliva as HBGA source, mean ± standard deviation
[4] = IC50 Saliva B, blocking assay, type B saliva as HBGA source, mean ± standard deviation
[5] = Activity (IC50), blocking the binding of NoV P dimer to HBGAs, given as range or bound
[6] = blocking assay, type A saliva as HBGA source, mean ± standard deviation, read-out: IC50 Saliva A
[7] = blocking assay, type B saliva as HBGA source, mean ± standard deviation, read-out: IC50 Saliva B

Sequence of P dimers of VA387 (GII.4) binding to saliva HBGAs (Q913Z3 214-539): as above

SMILES	IC50 [1, 3] [µM]	IC50 [1, 4] [µM]	IC50 [1, 5] [µM]	IC50 [1, 6] [µM]	IC50 [1, 7] [µM]	IC50 [2] [µM]	CC50 at 3 days (MTS cytotoxicity assay) [µM]
C[C@]12CC[C@H](O)C=C1CC[C@@H]1C2CC[C@@]2(C)C1CC[C@@]21CCC(=O)O1 (stereo partly drawn) [Compound 15]	28.5 ± 1.54	29.4 ± 1.24	–	–	–	–	–
CC(=O)OCC(=O)C1CCC2C3CC=C4CC(O)CCC4(C)C3CCC12C (stereo not drawn) [Compound 16]	–	–	20 to 40	30.9 ± 1.04	30.1 ± 1.35	–	–
CNc1cc([N+](=O)[O-])cc2c1NC(c1ccccn1)C1CC=CC21 (stereo not drawn) [Compound 12]	–	–	20 to 40	–	–	–	–
C/C(=N/O)C1=CCC2C3CC[C@H]4C/C(=N\O)CC[C@]4(C)C3CC[C@]12C (stereo partly drawn) [Compound 1]	–	–	–	2.38 ± 0.15	2.54 ± 0.21	< 10	–
C[C@]12CCC3C(CC[C@H]4CC=CC[C@]34C)C1CC/C2=N/NC(N)=S (stereo partly drawn) [Compound 5]	–	–	–	8.7 ± 1.03	8.97 ± 0.63	< 10	–
Nc1ccc2c(c1)C1C=CCC1C(c1ccc([N+](=O)[O-])cc1)N2 (stereo not drawn) [Compound 6]	–	–	10 to 20	12.6 ± 0.87	12.8 ± 0.64	–	–
CC1(C)CC(=O)C2=C(C1)c1c(ccc3ccccc13)NC2 [Compound 8]	–	–	10 to 20	14.1 ± 0.53	14.9 ± 0.71	–	–
CC1CCc2c(sc3ncn(C(C)C(=O)N/N=C/c4c(O)ccc5ccccc45)c(=O)c23)C1 (stereo not drawn) [Compound 9]	–	–	–	17 ± 1.06	16.8 ± 0.87	–	–
CC12CCC3C(CCC4CC(=O)CCC43C)C1CCC2O (stereo not drawn) [Compound 19]	–	–	20 to 40	36.9 ± 1.47	35.7 ± 1.06	–	–
O=C1CC(c2ccc([N+](=O)[O-])cc2)c2ccc3ccccc3c2N1 (stereo not drawn) [Compound 13]	–	–	20 to 40	24.5 ± 0.98	26.3 ± 1.24	–	–
C[C@]12CC[C@H](O)C=C1CC[C@@H]1C2CC[C@@]2(C)C1CC[C@@]21CCC(=O)O1 (stereo partly drawn) [Compound 11]	22.7 ± 1.36	23.7 ± 1.28	20 to 40	–	–	–	–
O=[N+]([O-])c1ccc2c(c1)C1C=CCC1C(C1CC=CCC1)N2 (stereo not drawn) [Compound 7]	–	–	10 to 20	–	13.1 ± 0.87	–	–
CC(=O)C1CCC2C3CC[C@H]4CC(O)CCC4(C)C3CCC12C (stereo partly drawn) [Compound 2]	2.9 ± 0.33	2.93 ± 0.18	1 to 10	–	–	< 10	267
CC(=O)C1=CCC2[C@@H]3CC=C4C[C@H](O)CC[C@]4(C)C3CC[C@]12C (stereo partly drawn) [Compound 14]	24.8 ± 2.02	25.1 ± 1.32	20 to 40	–	–	–	–
C[C@]12CC[C@H]3[C@@H](CCC4=C/C(=N/OCC(=O)NCC(=O)O)CC[C@@]43C)[C@@H]1CC[C@H]2O [Compound 10]	18.7 ± 0.35	18.6 ± 0.62	10 to 20	–	–	–	–
O=C(O)c1ccc(C2Nc3c(F)cccc3C3C=CCC32)cc1 (stereo not drawn) [Compound 20]	–	–	20 to 40	38 ± 2.01	39.4 ± 1.53	–	–
C[C@]12CC[C@H](O)C[C@@H]1CC[C@@H]1[C@@H]2CC[C@@]2(C)[C@H]1CC[C@]2(C)O [Compound 3]	–	–	–	–	3.39 ± 0.24	< 10	–
Cc1ccc(C2CC(=O)Nc3c2ccc2ccccc32)cc1[N+](=O)[O-] (stereo not drawn) [Compound 17]	–	–	20 to 40	–	33.7 ± 1.27	–	–
Cc1noc2c1C1(C)CCC3C(CC=C4CC(O)CCC43C)C1C2 (stereo not drawn) [Compound 18]	–	–	20 to 40	33.9 ± 1.67	34.5 ± 1.93	–	–
CC(CCC(=O)O)C1CCC2C3CC=C4CC(O)CCC4(C)C3CCC12C (stereo not drawn) [Compound 4]	–	–	–	–	7.65 ± 0.33	< 10	–
